Test results published in publication PMC11873239, “A covalent chemical probe for Chikungunya nsP2 cysteine protease with antialphaviral activity and proteome-wide selectivity” (Scientific Reports, 2025).
Read-outs that look alike come from different tables or passages of the source.

What was measured:
Format in all cases: binding
[1] = target: HEK293 cell lysate proteins and CHIKV nsP2 (Homo sapiens, UniProt O75342)
[2] = target: HEK293 cell lysate proteins and CHIKV nsP2 (Homo sapiens, UniProt P01040)
Chain of HEK293 cell lysate proteins and CHIKV nsP2 (Homo sapiens, UniProt P01040) (P01040 whole entry): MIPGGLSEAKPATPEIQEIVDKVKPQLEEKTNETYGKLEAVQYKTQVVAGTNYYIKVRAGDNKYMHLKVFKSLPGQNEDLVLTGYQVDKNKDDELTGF

[3] = target: HEK293 cell lysate proteins and CHIKV nsP2 (Homo sapiens, UniProt P05089)
Chain of HEK293 cell lysate proteins and CHIKV nsP2 (Homo sapiens, UniProt P05089) (P05089 whole entry): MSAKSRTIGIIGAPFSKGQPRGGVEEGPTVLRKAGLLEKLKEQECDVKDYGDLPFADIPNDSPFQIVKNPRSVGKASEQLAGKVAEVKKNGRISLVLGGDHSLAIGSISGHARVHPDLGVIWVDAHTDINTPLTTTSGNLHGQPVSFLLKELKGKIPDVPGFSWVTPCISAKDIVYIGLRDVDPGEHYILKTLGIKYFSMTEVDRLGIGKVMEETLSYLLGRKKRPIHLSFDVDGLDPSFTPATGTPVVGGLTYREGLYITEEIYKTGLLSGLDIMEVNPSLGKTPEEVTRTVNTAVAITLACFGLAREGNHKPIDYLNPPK

[4] = target: HEK293 cell lysate proteins and CHIKV nsP2 (Homo sapiens, UniProt P05109)
[5] = target: HEK293 cell lysate proteins and CHIKV nsP2 (Homo sapiens, UniProt P07339)
[6] = target: HEK293 cell lysate proteins and CHIKV nsP2 (Homo sapiens, UniProt P07355)
[7] = target: HEK293 cell lysate proteins and CHIKV nsP2 (Homo sapiens, UniProt P08621)
[8] = target: HEK293 cell lysate proteins and CHIKV nsP2 (Homo sapiens, UniProt P10599)
[9] = target: HEK293 cell lysate proteins and CHIKV nsP2 (Homo sapiens, UniProt P11142)
[10] = target: HEK293 cell lysate proteins and CHIKV nsP2 (Homo sapiens, UniProt P11388)
[11] = target: HEK293 cell lysate proteins and CHIKV nsP2 (Homo sapiens, UniProt P13639)
[12] = target: HEK293 cell lysate proteins and CHIKV nsP2 (Homo sapiens, UniProt P25311)
[13] = target: HEK293 cell lysate proteins and CHIKV nsP2 (Homo sapiens, UniProt P26368)
[14] = target: HEK293 cell lysate proteins and CHIKV nsP2 (Homo sapiens, UniProt P31025)
[15] = target: HEK293 cell lysate proteins and CHIKV nsP2 (Homo sapiens, UniProt P31944)
[16] = target: HEK293 cell lysate proteins and CHIKV nsP2 (Homo sapiens, UniProt P32119)
[17] = target: HEK293 cell lysate proteins and CHIKV nsP2 (Homo sapiens, UniProt P46821)
[18] = target: HEK293 cell lysate proteins and CHIKV nsP2 (Homo sapiens, UniProt P60709)
[19] = target: HEK293 cell lysate proteins and CHIKV nsP2 (Homo sapiens, UniProt Q01469)
Chain of HEK293 cell lysate proteins and CHIKV nsP2 (Homo sapiens, UniProt Q01469) (Q01469 whole entry, looked up): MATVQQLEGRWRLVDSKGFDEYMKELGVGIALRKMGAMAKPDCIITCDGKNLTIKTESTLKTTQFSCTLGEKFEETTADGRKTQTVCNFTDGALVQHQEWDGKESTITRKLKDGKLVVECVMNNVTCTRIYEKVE

[20] = target: HEK293 cell lysate proteins and CHIKV nsP2 (Homo sapiens, UniProt Q02413)
Chain of HEK293 cell lysate proteins and CHIKV nsP2 (Homo sapiens, UniProt Q02413) (Q02413 50-1049): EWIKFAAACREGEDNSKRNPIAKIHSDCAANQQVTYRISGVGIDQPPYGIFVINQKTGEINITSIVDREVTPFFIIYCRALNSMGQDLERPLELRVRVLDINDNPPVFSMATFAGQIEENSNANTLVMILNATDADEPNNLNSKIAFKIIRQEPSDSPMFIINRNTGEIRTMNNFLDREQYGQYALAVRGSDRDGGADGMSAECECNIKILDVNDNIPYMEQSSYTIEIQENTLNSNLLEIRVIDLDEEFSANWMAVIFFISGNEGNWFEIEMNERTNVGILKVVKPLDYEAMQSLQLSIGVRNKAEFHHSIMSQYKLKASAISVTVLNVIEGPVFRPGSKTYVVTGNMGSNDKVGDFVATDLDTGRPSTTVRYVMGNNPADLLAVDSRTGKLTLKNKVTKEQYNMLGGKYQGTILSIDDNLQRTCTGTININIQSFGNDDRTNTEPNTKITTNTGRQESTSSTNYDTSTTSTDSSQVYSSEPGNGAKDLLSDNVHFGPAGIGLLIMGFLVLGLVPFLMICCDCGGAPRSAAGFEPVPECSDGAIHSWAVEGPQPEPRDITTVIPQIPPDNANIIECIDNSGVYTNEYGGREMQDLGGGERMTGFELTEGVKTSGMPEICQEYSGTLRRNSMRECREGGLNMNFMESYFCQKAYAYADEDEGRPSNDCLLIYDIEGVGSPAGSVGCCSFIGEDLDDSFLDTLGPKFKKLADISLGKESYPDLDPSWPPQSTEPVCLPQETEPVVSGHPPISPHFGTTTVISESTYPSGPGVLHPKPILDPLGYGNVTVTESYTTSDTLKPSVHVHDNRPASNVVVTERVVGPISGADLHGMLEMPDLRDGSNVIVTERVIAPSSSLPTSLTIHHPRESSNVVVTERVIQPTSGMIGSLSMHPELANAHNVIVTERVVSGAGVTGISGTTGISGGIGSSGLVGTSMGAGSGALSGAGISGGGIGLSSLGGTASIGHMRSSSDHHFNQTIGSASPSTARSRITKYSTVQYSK

[21] = target: HEK293 cell lysate proteins and CHIKV nsP2 (Homo sapiens, UniProt Q08554)
Chain of HEK293 cell lysate proteins and CHIKV nsP2 (Homo sapiens, UniProt Q08554) (Q08554 135-894): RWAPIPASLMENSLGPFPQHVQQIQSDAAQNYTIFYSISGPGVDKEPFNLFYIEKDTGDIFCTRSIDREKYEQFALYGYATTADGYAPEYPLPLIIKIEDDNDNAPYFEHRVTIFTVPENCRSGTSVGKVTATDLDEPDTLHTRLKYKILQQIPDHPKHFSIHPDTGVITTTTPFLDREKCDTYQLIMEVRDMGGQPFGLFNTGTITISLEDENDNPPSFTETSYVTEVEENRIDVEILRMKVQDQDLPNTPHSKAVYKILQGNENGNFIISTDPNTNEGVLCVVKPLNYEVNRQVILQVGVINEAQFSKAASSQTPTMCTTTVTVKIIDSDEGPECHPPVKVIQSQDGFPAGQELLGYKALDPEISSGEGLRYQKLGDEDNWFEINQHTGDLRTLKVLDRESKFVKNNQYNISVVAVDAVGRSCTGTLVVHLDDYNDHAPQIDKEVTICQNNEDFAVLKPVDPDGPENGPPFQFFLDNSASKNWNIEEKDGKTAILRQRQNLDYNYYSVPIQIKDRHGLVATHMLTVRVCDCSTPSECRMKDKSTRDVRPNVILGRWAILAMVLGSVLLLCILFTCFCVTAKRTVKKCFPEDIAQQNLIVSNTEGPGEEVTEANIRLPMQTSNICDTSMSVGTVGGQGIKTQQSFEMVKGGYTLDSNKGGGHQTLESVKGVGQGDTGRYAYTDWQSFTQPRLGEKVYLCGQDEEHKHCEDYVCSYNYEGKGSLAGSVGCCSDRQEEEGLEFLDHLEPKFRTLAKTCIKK

[22] = target: HEK293 cell lysate proteins and CHIKV nsP2 (Homo sapiens, UniProt Q12872)
[23] = target: HEK293 cell lysate proteins and CHIKV nsP2 (Homo sapiens, UniProt Q14151)
Chain of HEK293 cell lysate proteins and CHIKV nsP2 (Homo sapiens, UniProt Q14151) (Q14151 whole entry): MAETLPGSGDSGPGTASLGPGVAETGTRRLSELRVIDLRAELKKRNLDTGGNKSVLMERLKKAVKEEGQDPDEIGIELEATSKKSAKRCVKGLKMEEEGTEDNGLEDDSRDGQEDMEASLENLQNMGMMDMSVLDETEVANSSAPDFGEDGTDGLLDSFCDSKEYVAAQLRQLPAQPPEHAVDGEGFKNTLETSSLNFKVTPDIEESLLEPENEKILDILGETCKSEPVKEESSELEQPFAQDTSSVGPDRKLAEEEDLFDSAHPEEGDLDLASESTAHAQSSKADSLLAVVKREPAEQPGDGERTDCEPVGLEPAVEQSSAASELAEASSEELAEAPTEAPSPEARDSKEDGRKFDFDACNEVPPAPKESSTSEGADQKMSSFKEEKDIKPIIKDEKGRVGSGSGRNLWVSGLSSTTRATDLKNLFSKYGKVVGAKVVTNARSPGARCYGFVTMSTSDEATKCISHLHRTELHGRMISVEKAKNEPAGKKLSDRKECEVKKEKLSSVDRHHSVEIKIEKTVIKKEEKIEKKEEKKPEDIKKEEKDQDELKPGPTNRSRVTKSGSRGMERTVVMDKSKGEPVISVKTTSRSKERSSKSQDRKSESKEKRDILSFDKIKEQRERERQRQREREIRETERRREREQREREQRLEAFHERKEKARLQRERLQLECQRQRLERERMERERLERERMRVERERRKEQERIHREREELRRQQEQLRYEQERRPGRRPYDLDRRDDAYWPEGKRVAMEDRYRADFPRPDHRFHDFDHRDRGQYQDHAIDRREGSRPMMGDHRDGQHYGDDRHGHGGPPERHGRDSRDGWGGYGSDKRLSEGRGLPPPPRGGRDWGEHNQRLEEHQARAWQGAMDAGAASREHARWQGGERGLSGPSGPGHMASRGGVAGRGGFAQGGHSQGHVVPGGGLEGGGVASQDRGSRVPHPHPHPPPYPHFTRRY

[24] = target: HEK293 cell lysate proteins and CHIKV nsP2 (Homo sapiens, UniProt Q14241)
Chain of HEK293 cell lysate proteins and CHIKV nsP2 (Homo sapiens, UniProt Q14241) (Q14241 whole entry): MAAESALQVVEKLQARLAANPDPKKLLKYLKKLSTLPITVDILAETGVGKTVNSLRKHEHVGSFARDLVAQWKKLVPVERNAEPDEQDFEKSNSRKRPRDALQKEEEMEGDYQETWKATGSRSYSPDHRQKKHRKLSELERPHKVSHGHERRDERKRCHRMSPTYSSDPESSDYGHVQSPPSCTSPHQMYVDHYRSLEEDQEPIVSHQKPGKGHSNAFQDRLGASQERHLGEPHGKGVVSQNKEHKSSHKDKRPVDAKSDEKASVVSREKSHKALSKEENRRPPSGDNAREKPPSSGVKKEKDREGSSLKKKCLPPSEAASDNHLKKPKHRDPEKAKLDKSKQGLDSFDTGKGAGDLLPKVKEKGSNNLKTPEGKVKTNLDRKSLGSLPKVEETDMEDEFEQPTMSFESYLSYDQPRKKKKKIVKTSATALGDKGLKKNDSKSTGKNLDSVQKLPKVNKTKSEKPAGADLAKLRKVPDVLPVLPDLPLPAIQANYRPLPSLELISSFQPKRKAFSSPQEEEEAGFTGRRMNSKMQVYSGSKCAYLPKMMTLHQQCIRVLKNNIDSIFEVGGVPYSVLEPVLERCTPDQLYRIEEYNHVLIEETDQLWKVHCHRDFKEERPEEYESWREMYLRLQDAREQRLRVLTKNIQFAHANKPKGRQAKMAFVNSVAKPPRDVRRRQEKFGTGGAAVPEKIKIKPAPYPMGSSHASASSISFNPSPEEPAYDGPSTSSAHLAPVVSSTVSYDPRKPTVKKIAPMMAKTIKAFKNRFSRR

[25] = target: HEK293 cell lysate proteins and CHIKV nsP2 (Homo sapiens, UniProt Q5T750)
[26] = target: HEK293 cell lysate proteins and CHIKV nsP2 (Homo sapiens, UniProt Q6KC79)
[27] = target: HEK293 cell lysate proteins and CHIKV nsP2 (Homo sapiens, UniProt Q6ZVX7)
Chain of HEK293 cell lysate proteins and CHIKV nsP2 (Homo sapiens, UniProt Q6ZVX7) (Q6ZVX7 whole entry): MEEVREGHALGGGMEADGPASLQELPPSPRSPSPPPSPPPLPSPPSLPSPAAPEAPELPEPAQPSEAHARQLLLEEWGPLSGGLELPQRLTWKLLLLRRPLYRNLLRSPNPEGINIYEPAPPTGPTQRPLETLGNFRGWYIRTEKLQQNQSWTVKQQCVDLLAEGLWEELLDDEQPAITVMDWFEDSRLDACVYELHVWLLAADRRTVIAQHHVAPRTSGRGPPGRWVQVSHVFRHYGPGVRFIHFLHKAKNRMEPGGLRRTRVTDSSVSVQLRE

[28] = target: HEK293 cell lysate proteins and CHIKV nsP2 (Homo sapiens, UniProt Q8NFC6)
[29] = target: HEK293 cell lysate proteins and CHIKV nsP2 (Homo sapiens, UniProt Q92616)
[30] = target: HEK293 cell lysate proteins and CHIKV nsP2 (Homo sapiens, UniProt Q96P63)
[31] = target: HEK293 cell lysate proteins and CHIKV nsP2 (Homo sapiens, UniProt Q96QA5)
[32] = target: HEK293 cell lysate proteins and CHIKV nsP2 (Homo sapiens, UniProt Q99459)
[33] = target: HEK293 cell lysate proteins and CHIKV nsP2 (Homo sapiens, UniProt Q9BQG0)
[34] = target: HEK293 cell lysate proteins and CHIKV nsP2 (Homo sapiens, UniProt Q9NWH9)
[35] = target: HEK293 cell lysate proteins and CHIKV nsP2 (Homo sapiens, UniProt Q9UQ35)
[36] = system: HEK293 cell lysate proteins and CHIKV nsP2; settings: protein nsP2 (nsP2_AA993-AA1333_Tags)

Chain of HEK293 cell lysate proteins and CHIKV nsP2 (Homo sapiens, UniProt O75342) (O75342 whole entry): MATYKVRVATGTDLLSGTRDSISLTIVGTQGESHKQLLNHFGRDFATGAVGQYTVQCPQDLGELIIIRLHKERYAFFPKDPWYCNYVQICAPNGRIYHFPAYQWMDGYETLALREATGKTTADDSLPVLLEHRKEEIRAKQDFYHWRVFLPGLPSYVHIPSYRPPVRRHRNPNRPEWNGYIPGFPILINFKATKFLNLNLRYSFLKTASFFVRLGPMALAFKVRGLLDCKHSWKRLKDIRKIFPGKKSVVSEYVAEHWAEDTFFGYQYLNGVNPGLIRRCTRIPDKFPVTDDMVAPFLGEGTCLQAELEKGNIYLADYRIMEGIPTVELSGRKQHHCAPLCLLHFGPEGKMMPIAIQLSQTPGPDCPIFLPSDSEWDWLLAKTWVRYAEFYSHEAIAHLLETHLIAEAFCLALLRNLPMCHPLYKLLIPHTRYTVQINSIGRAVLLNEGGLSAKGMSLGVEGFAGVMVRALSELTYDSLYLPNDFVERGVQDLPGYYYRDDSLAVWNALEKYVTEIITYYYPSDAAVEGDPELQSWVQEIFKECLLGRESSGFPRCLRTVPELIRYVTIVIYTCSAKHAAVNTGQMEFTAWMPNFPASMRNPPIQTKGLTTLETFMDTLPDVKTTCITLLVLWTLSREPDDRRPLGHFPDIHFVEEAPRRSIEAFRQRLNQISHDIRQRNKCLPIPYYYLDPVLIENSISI

## C#CCOc1ccccc1-c1cc(C(=O)NC/C=C/S(C)(=O)=O)on1 [VS, (E)-N-(3-(methylsulfonyl)allyl)−3-(2-(prop-2-yn-1-yloxy)phenyl)isoxazole-5-carboxamide]
[1]
  Log2 fold change: 2.14
[2]
  Log2 fold change: 1.75
[3]
  Log2 fold change: 1.79
[4]
  Log2 fold change: 1.58
[5]
  Log2 fold change: 1.67
[6]
  Log2 fold change: 1.52
[7]
  Log2 fold change: 3.47
[8]
  Log2 fold change: 1.84
[9]
  Log2 fold change: 1.15
[10]
  Log2 fold change: -1.34
[11]
  Log2 fold change: 1.35
[12]
  Log2 fold change: 1.43
[13]
  Log2 fold change: -0.62
[14]
  Log2 fold change: 1.54
[15]
  Log2 fold change: 1.29
[16]
  Log2 fold change: 2.04
[17]
  Log2 fold change: -0.63
[18]
  Log2 fold change: 1.54
[19]
  Log2 fold change: 2.38
[20]
  Log2 fold change: 1.36
[21]
  Log2 fold change: 0.93
[22]
  Log2 fold change: -1.75
[23]
  Log2 fold change: 1.50
[24]
  Log2 fold change: -1.01
[25]
  Log2 fold change: 2.49
[26]
  Log2 fold change: -0.34
[27]
  Log2 fold change: 2.74
[28]
  Log2 fold change: 0.23
[29]
  Log2 fold change: -2.86
[30]
  Log2 fold change: 1.71
[31]
  Log2 fold change: 1.51
[32]
  Log2 fold change: -0.00878
[33]
  Log2 fold change: -0.66
[34]
  Log2 fold change: -0.40
[35]
  Log2 fold change: 0.25
[36]
  Log2 fold change: 1.03
[36]; sheet nsP2 spike
  Log2 fold change: 7.13
